Experimental data taken from ChEMBL document CHEMBL4130350, “Discovery, mechanism and metabolism studies of 2,3-difluorophenyl-linker-containing PARP1 inhibitors with enhanced in vivo efficacy for cancer therapy” (Eur J Med Chem, 2017).

Key:
[1] = Drug level in mouse liver microsomes treated with 2-(4-(2,3-Difluoro-5-((4-oxo-3,4-dihydrophthalazin-1-yl)methyl)benzoyl)pipe-razin-1-yl)nicotinonitrile at 2 uM up to 60 mins by LC-MS/MS analysis; format: ADME, microsome; conditions: 1 h
[2] = Retention time in mouse liver microsomes at 2 uM up to 60 mins in presence of NADPH by LC-MS/MS analysis; format: ADME, microsome; conditions: 1 h
[3] = target: Poly [ADP-ribose] polymerase 1 (Homo sapiens, UniProt P09874); assay: Inhibition of PARP1 (unknown origin) by ELISA
[4] = tested on: MDA-MB-436; assay: Antiproliferative activity against human MDA-MB-436 cells after 7 days by CCK8 or SRB assay; format: functional, cell-based; conditions: MDA-MB-436, 168 h
[5] = Cytotoxicity against BRCA2 deficient Chinese hamster VC8 cells after 3 days by CCK8 or SRB assay; format: functional, cell-based; conditions: Cricetulus griseus, V-C8, 72 h
[6] = tested on: V79; assay: Cytotoxicity against BRCA2 expressing Chinese hamster V79 cells after 3 days by CCK8 or SRB assay; format: cell-based; conditions: Cricetulus griseus, V79, 72 h

Poly [ADP-ribose] polymerase 1, sequence (P09874 whole entry): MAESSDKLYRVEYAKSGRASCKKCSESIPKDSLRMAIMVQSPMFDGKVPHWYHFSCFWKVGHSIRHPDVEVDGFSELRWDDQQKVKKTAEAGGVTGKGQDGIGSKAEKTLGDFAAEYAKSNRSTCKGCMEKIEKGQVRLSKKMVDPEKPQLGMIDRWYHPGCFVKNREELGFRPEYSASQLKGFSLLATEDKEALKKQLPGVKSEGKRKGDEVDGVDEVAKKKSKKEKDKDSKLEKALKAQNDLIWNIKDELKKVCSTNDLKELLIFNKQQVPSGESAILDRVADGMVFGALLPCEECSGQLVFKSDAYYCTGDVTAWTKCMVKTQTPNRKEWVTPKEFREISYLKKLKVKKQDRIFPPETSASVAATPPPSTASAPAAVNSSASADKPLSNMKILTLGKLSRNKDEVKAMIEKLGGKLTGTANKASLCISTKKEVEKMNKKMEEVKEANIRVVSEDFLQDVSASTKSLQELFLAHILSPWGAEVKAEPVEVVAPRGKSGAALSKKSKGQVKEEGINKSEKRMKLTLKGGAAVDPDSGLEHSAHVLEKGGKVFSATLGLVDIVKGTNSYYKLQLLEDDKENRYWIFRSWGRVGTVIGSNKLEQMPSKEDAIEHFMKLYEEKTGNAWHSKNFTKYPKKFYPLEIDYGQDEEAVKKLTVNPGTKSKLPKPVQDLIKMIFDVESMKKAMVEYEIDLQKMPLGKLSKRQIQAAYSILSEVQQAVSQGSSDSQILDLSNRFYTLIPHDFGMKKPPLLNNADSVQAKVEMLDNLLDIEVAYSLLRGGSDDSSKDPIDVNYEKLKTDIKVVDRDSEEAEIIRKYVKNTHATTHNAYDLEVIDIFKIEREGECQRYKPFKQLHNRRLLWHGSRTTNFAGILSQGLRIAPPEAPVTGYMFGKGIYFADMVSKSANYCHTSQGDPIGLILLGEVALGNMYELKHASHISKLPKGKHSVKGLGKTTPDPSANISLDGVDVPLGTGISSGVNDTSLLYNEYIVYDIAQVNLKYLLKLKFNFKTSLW

Structure (SMILES) | Drug uptake [1] | Retention_time [2] | IC50 [3] | IC50 [4] | IC50 [5] | IC50 [6]
N#Cc1cccnc1NCCN(CC(=O)O)C(=O)c1cc(Cc2n[nH]c(=O)c3ccccc23)cc(F)c1F | Active | 6.7 min | – | – | – | –
O=C(c1cc(Cc2n[nH]c(=O)c3ccccc23)cc(F)c1F)N1CCN(c2ccccc2O)CC1 | – | – | 0.9 nM | 0.3 nM | 31.7 nM | 7830 nM
O=C(c1cc(Cc2n[nH]c(=O)c3ccccc23)cc(F)c1F)N1CCN(c2cccc(C(F)(F)F)c2)CC1 | – | – | 0.8 nM | 23.4 nM | 624 nM | > 10000 nM
N#Cc1cccnc1NCCN(CCO)C(=O)c1cc(Cc2n[nH]c(=O)c3ccccc23)cc(F)c1F | Active | 6.2 min | – | – | – | –
